Assay results as given in patent US10172951B2, “Dendrimer based nanodevices for therapeutic and imaging purposes” (priority 2009, dated 2019).

What was measured:
[1] = not told; cited from earlier work
[2] = Transmembrane transport and permeability, amnion; format: in vitro ADME, human
From the text: (§1) All human fetal membrane specimens were obtained at the time of cesarean section for obstetrical indications. The fetal membrane comprising chorioamniotic membrane (intact membranous tissue containing both amnion and chorion together) (n=7) and amnion (n=7) and chorion (n=7) were separately procured (size 6×9″). Each membrane was cut into 9 pieces for the 9 sets of diffusion chamber. The fresh membranes were collected immediately after the delivery, washed with PBS to remove the blood and stored in PBS until (˜1 h at 4° C.) it was mounted on the diffusion chamber (37±0.5° C.). Excess membranes were trimmed. The diffusion experiments were performed for 48 hours by mounting the membrane in the chamber to study the transport across the membranes. In all the experiments with chorioamniotic membrane the choriodecidua (maternal side) was placed facing the donor chamber and the amnionic epithelium (fetal side) was facing the receptor chamber. The chorion and amnion were mechanically separated by gently pulling the two membranes apart. For the chorion, the side attached to amnion was placed facing the receptor chamber and for the amnion the side attached to the chorion was placed facing the donor chamber in the diffusion apparatus. For histological evaluation, the tissue samples were collected at 0.5, 1, 2, 3 and 4 hours for and were fixed in 10% formalin overnight. Further, some sections were analyzed by hematoxylin and eosin (H & E) staining. The membrane thickness was measured using the Mitutoyo Super Caliper by placing the respective membranes between the two glass slides and subtracting the thickness of the glass slides without the membrane.
(§2) Permeation experiments were carried out using a two-chamber (donor and receptor) side-by-side Permegear diffusion cell with a chamber volume of 3 mL and with a diameter of 13 mm and a diffusional area of 1.32 cm^2. The fetal membranes (chorion and amnion together, amnion and chorion) each (n=9) were mounted between two halves of the donor and receptor cell (9 sets), which were further clamped together and sealed tightly with the rubber packing at the end of each glass chamber. The receptor cell (volume 3 mL) was filled with sterile PBS (pH 7.4). The donor cell (volume 3 mL) was filled with solution of compounds whose permeability was evaluated. […] The system was maintained at 37° C. by using a circulating water bath and a jacket surrounding each cell. The donor and receiving medium was continuously stirred (600 rpm) with a magnetic bar to avoid stagnant aqueous diffusion layer effects. Aliquots (200 μL) were collected from the receptor cell every 30 min till first 6 hours and at predetermined intervals thereafter and replaced with equal volume of PBS to maintain sink conditions throughout the study. […] The concentration of compound in the receptor medium was determined using a Molecular Devices SpectroMax M2, UV visible and Fluorescent plate reader at ex 495/em 521. The cumulative amount of compound transported across the membrane in the receptor cell was determined using a calibration curve (a transport of 50% corresponds equilibrium achieved). All the experiments were conducted in dark room. All experiments were done in triplicate and the results are reported as mean±STDev.
[formula] To determine the permeability coefficient, P, a plot of −V/2A ln (1−2Ct/C0) against t was constructed and linear fitting was performed. The slope of the linear portion of the graph yields a permeability coefficient. The thickness of the chorioamnion, chorion and amnion was 0.22 mm, 0.16 mm and 0.05 mm respectively (n=7), as measured with the help of Mitutoyo Super Caliper. […] The FIGS. 93A-C and FIG. 94 show the plots used for calculation of the permeability and the correlation in all the cases ranged from 0.96 to 0.99.

[3] = Transmembrane transport and permeability, chorion; format: in vitro ADME, human; conditions: 0.3 mg/mL
From the text: as §1, §2
(§3) [formula] […] The thickness of the chorioamnion, chorion and amnion was 0.22 mm, 0.16 mm and 0.05 mm respectively (n=7), as measured with the help of Mitutoyo Super Caliper. […]

[4] = Permeability across the rabbit amniotic membrane (side by side diffusion chamber); format: in vitro ADME; conditions: in 1 hour, 37° C.
Protocol: The permeability of the G4-PAMAM-FITC across the normal rabbit amniotic membrane and endotoxin treated rabbit amniotic membrane was studied using a side by side Permegear diffusion chamber at 37° C. for 48 hours. Endotoxin treated membranes were used to mimic the condition of E. coli infection in uterus. The freshly excised rabbit membranes obtained after sacrificing the rabbit was placed in between the donor and receptor chamber.

[5] = Transmembrane transport and permeability, chorioamnion; format: in vitro ADME, human; conditions: 0.3 mg/mL
From the text: as §1
Permeation experiments were carried out using a two-chamber (donor and receptor) side-by-side Permegear diffusion cell with a chamber volume of 3 mL and with a diameter of 13 mm and a diffusional area of 1.32 cm^2. The fetal membranes (chorion and amnion together, amnion and chorion) each (n=9) were mounted between two halves of the donor and receptor cell (9 sets), which were further clamped together and sealed tightly with the rubber packing at the end of each glass chamber. […] The donor cell (volume 3 mL) was filled with solution of compounds whose permeability was evaluated. […] The concentration of compound in the receptor medium was determined using a Molecular Devices SpectroMax M2, UV visible and Fluorescent plate reader at ex 495/em 521. The cumulative amount of compound transported across the membrane in the receptor cell was determined using a calibration curve (a transport of 50% corresponds equilibrium achieved). […]
as §3

[6] = Brain biodistribution of FITC-G4-OH after subarachnoid/subdural injection (microscopy, HPLC); format: in vivo, rabbit; conditions: 24 hours after injection into CSF
Protocol: Animals in each group were euthanized 24 hours after subarachnoid administration of FITC-G4-OH with an overdose of pentobarbital (120 mg/kg administered intra-peritoneal). Following administration of the drug, animals were secured to a stainless steel surgical apparatus, the heart was exposed rapidly and a butterfly needle was inserted and secured in the left apex of the heart, the vena cava was incised and perfusion was initiated. Animals were perfused under pressure with 30 mL chilled physiological saline (0.9%) and 120 mL of 4% paraformaldehyde in phosphate buffer (0.1 M, pH 7.4) at a constant rate of 5 ml/min using a constant pressure pump, brains were removed and immersed in the same fixative for 48 hours, cryoprotected using graded solutions of sucrose and frozen at −80° C. until they were sectioned. […]
Brain tissue samples weighing approximately 1 mg were collected from healthy pups and CP pups and used for analysis. […] The samples were analyzed by HPLC and the amount of dendrimer-FITC quantified using the standard calibration curve for FITC-G4-OH. To estimate the fluorescence as a measure of concentration of FITC-G4-OH localized in hippocampus or cortex, the samples were analyzed by reverse phase-HPLC and the amount was quantified using the standard calibration curve for FITC-G4-OH. […]

| Molecule | in vitro permeability [1] | Permeability coefficient, Amnion ([2]; 0.3 mg/mL) | transport across amnion ([2]; in 2 hours, 0.3 mg/mL) [%] | transport across amnion ([2]; in 5 hours) [%] | Permeability coefficient, Chorion [3] | crossed the membrane [4] [%] | Permeability coefficient, Chorioamnion [5] | regional and cellular distribution in brain [6] |
| --- | --- | --- | --- | --- | --- | --- | --- | --- |
| CC(C)(N)C(=O)O [2-aminoisobutyrate] | 1.5×10^−6 cm^2/s | – | – | – | – | – | – | – |
| fluorescein isothiocyanate [FITC, reference compound] | – | 2.26×10^−6 cm^2/s | 49 | 50 | 1.32×10^−6 cm^2/s | 50 | 7.93×10^−7 cm^2/s | non-specific uptake in all layers of the cortex and ventricular region |
